Bridge positions count the residues as written; N and C are the ends. Square brackets hold non-standard residues; d marks the D form. Peptide text beside a SMILES is read from it. hArg = N=C(N)NCCCC[C@H](N)C(=O)O; Ac5c = NC1(C(=O)O)CCCC1; Aib = CC(C)(N)C(=O)O
Tests used:
Saos-2 PTH1R [1] = molecular target: Saos-2 PTH1R (UniProt Q03431); assay: cell-based or functional assay
CYP2D6 [2] = molecular target: T1, CYP2D6 (Homo sapiens, UniProt P10635); assay: cell-based or functional assay
Saos-2 PTH1R [3] = molecular target: T2, Saos-2 PTH1R (Homo sapiens, UniProt Q03431); assay: cAMP-efficacy assay in Saos-2 cells; format: cell-based; details: for Emax ± SEM: relative effect to the control (SEQ ID NO: 32)
T2 construct: endogenous in cells; host or cells: Saos-2
T2 sequence (Q03431 27-593): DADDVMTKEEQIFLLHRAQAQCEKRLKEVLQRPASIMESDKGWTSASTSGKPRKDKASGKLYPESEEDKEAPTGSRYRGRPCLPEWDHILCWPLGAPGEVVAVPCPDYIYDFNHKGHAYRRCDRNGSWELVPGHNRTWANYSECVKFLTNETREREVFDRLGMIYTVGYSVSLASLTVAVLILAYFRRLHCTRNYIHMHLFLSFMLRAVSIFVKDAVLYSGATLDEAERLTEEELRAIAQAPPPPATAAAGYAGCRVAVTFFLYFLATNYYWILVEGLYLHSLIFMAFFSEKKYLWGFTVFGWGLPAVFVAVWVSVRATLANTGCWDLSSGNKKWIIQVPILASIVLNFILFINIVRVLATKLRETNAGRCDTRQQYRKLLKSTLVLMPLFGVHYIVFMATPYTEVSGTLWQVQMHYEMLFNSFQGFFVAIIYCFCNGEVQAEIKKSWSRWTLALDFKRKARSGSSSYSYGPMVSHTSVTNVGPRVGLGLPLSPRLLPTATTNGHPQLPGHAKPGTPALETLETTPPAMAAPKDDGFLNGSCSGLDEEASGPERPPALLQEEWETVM
Summary of the method: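 Saos-2 cells, grown two days after seeding at 50,000 cells/well, were exposed to peptide for 15 min at 37 °C in Tyrode's buffer with 0.1% BSA and 100 μM IBMX. After stopping with cold HCl, cAMP was measured by radioimmunoassay FlashPlate. EC50, pEC50, Hill slope and Emax came from a four-parameter sigmoidal fit.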

CYP2D6 [4] = molecular target: T1, CYP2D6; assay: CYP2D6 inhibition in pooled human liver microsomes; format: in vitro ADME; design: Pooled human liver microsomes (HLM, final concentration 0.05 mg protein/mL); tissue BD Biosciences 452161; host or cells: pooled human liver microsomes; details: 10 μM compound, dextrorphan formation rate
Experimental: Stock solutions of the test compounds (1 mM) were prepared in 50% isopropanol or 20% DMSO. Pooled human liver microsomes (HLM, final concentration 0.05 mg protein/mL) were mixed with phosphate buffer (0.1 M potassium phosphate, pH 7.4), CYP2D6 substrate (dextrometrorphan, 5 μM final concentration) and test compound (10 μM), quinidine (0.5 μM) or vehicle (0.2% DMSO or 0.5% isopropanol). The mixture was preincubated for 5 min at 37° C. prior to initiation of the reaction addition of a NADPH regenerating mixture (Final concentration: 1.25 mM NADP^+, 3.3 mM Glucose-6-phosphate, 3.3 mM MgCL2 and 0.4 U/mL glucose-6-phosphat dehydrogenase). After 5 minutes the reaction was stopped by addition of 0.25 volume stop reagent (94% acetonitrile, 6% acetic acid). Each experiment was performed in duplicate or triplicate.
The quantification of CYP2D6 product (dextrorphan) was performed by LC/MS/MS. After centrifugation for 5 min at 10.000 g, 40 μL of the supernatant was injected onto a C8 RP-HPLC column (XterraMS, C8, […], 50×2.1 mm). Dextrorphan was eluted by a linear gradient from 0 to 90% acetonitrile in 0.1% formic acid over 4 min using a flow rate of 0.15 ml/min. The concentration of dextrorphan in the reaction mixture was estimated from the peak area of the MS/MS transition (m/z 258.1>199) using an external calibration curve (Table 8).
The CYP2D6 activity in HLM was calculated as the metabolite formation rate: […]
Where, v is the formation rate, [metabolite] is the detected concentration of dextrorphan (pmol/mL) at the time (t, min) and [protein] is the protein concentration (mg/mL) in the reaction mixture. The influence of the test compounds on the CYP2D6 activity was calculated as % of the activity measured when incubated with the vehicle. The effect of CYP2D6 inhibitor (quinidine) was included as inhibition control within each batch analysis. A reduction in CYP2D6 activity to less than 70% of the vehicle control was considered significant.

[5] = cAMP, 100 μM IBMX, 37° C. 15 min, suffix of label = salt tested

T1 sequence (P10635 whole entry): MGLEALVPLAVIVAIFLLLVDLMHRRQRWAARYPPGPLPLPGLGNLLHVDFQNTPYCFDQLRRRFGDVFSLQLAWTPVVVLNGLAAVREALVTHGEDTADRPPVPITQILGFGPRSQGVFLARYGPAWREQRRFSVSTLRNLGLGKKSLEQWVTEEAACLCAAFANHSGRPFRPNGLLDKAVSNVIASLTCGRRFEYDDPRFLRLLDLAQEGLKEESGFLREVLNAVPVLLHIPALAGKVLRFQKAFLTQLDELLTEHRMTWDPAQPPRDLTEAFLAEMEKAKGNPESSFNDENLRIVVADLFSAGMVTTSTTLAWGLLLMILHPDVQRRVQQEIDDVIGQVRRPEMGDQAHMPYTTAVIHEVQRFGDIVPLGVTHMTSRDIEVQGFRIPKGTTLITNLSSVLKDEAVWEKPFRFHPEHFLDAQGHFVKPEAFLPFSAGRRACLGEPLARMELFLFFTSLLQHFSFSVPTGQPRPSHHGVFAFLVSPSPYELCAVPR

| Compound | CYP2D6 activity (% of vehicle), dextrorphan formation rate in human liver microsomes, 10 µM peptide (CYP2D6 [2]) | EC50 (Saos-2 PTH1R [3]; [5]) | Emax ± SEM (Saos-2 PTH1R [3]) | CYP2D6 activity (% of vehicle) (CYP2D6 [4]) | other results |
| --- | --- | --- | --- | --- | --- |
| H-Ac5c-Val-Aib-Glu-Ile-Gln-Leu-Met-His-Gln-Har-Ala-Glu( )-Trp-Leu-Asn-Lys( )-NH2 (peptide) | 99 % of vehicle |  |  |  | Emax, cAMP efficacy assay in Saos-2 cells (8T, trifluoroacetate salt) (relative to control (SEQ ID NO: 32)) (Saos-2 PTH1R [1]): 1.07; pEC50, cAMP efficacy assay in Saos-2 cells (8T, trifluoroacetate salt) (Saos-2 PTH1R [1]): 7.94 -log(M) |
| H-Ac5c-Val-Aib-Glu-Ile-Gln-Leu-Nle-His-Gln-Har-Ala-Lys( )-Trp-Leu-Asn-Asp( )-NH2 (peptide) | 99 % of vehicle |  |  |  | Emax, cAMP efficacy assay in Saos-2 cells (20T, trifluoroacetate salt) (relative to control (SEQ ID NO: 32)) (Saos-2 PTH1R [1]): 0.97; pEC50, cAMP efficacy assay in Saos-2 cells (20T, trifluoroacetate salt) (Saos-2 PTH1R [1]): 8.1 -log(M) |
| H-Ser-Val-Ser-Glu-Ile-Gln-Leu-Met-His-Asn-Leu-Gly-Lys-His-Leu-Asn-Ser-NH2 (peptide) | 41 % of vehicle |  |  |  |  |
| CC[C@H](C)[C@H](NC(=O)[C@H](CCC(=O)O)NC(=O)C(C)(C)NC(=O)[C@@H](NC(=O)C1(N)CCCC1)C(C)C)C(=O)N[C@@H](CCC(N)=O)C(=O)N[C@@H](CC(C)C)C(=O)N[C@@H](CCSC)C(=O)N[C@@H](Cc1c[nH]cn1)C(=O)N[C@@H](CCC(N)=O)C(=O)N[C@@H](CCCCNC(=N)N)C(=O)N[C@@H](C)C(=O)N[C@H]1CCCCNC(=O)C[C@@H](C(=O)O)NC(=O)[C@H](CC(N)=O)NC(=O)[C@H](CC(C)C)NC(=O)[C@H](Cc2c[nH]c3ccccc23)NC1=O [SEQ ID NO: 4, H-Ac5c-Val-Aib-Glu-Ile-Gln-Leu-Met-His-Gln-Har-Ala-Lys( )-Trp-Leu-Asn-Asp( )-OH] (H-[Ac5c]V[Aib]EIQLMHQ[hArg]AKWLND-OH; lactam 13-17) |  | 0.038 µM | 1.11 ± 0.03 | 89 % of vehicle | potency compared to linear / non-stabilized counterparts, in words (Saos-2 PTH1R [3]; cAMP): clearly higher potency; potency compared to linear / non-stabilized counterparts, in words (Saos-2 PTH1R [3]; cAMP, listed as 4): increased potencies; potency compared to linear / non-stabilized counterparts, in words (Saos-2 PTH1R [3]; cAMP, listed as SEQ ID NO:4): higher potency |
| H-Ser-Val-Ser-Glu-Ile-Gln-Leu-Met-His-Asn-Leu-Gly-Lys( )-His-Leu-Asn-Asp( )-NH2 (peptide) | 79 % of vehicle |  |  |  |  |
| H-Ac5c-Val-Aib-Glu-Ile-Gln-Leu-Met-His-Gln-Har-Ala-Lys( )-Trp-Leu-Asn-Asp( )-OH (peptide) | 89 % of vehicle |  |  |  | Emax, cAMP efficacy assay in Saos-2 cells (4T, trifluoroacetate salt) (relative to control (SEQ ID NO: 32)) (Saos-2 PTH1R [1]): 1.11; pEC50, cAMP efficacy assay in Saos-2 cells (4T, trifluoroacetate salt) (Saos-2 PTH1R [1]): 7.42 -log(M) |
| CC[C@H](C)[C@H](NC(=O)[C@H](CCC(=O)O)NC(=O)C(C)(C)NC(=O)[C@@H](NC(=O)C1(N)CCCC1)C(C)C)C(=O)N[C@@H](CCC(N)=O)C(=O)N[C@@H](CC(C)C)C(=O)N[C@@H](CCSC)C(=O)N[C@@H](Cc1c[nH]cn1)C(=O)N[C@@H](CCC(N)=O)C(=O)N[C@@H](CCCCNC(=N)N)C(=O)N[C@@H](C)C(=O)N[C@H]1CCC(=O)NCCCC[C@@H](C(N)=O)NC(=O)[C@H](CC(N)=O)NC(=O)[C@H](CC(C)C)NC(=O)[C@H](Cc2c[nH]c3ccccc23)NC1=O [SEQ ID NO: 8, H-Ac5c-Val-Aib-Glu-Ile-Gln-Leu-Met-His-Gln-Har-Ala-Glu( )-Trp-Leu-Asn-Lys( )-NH2] (H-[Ac5c]V[Aib]EIQLMHQ[hArg]AEWLNK-NH2; lactam 13-17) |  | 0.0115 µM | 1.07 ± 0.02 | 99 % of vehicle |  |
| H-Ac5c-Val-Aib-Glu-Ile-Glu-Leu-Met-His-Gln-Har-Ala-Lys( )-Trp-Leu-Asn-Asp( )-NH2 (peptide) | 89 % of vehicle |  |  |  | Emax, cAMP efficacy assay in Saos-2 cells (18T, trifluoroacetate salt) (relative to control (SEQ ID NO: 32)) (Saos-2 PTH1R [1]): 1.24; pEC50, cAMP efficacy assay in Saos-2 cells (18T, trifluoroacetate salt) (Saos-2 PTH1R [1]): 7.29 -log(M) |
| CC[C@H](C)[C@H](NC(=O)[C@H](CCC(=O)O)NC(=O)C(C)(C)NC(=O)[C@@H](NC(=O)C1(N)CCCC1)C(C)C)C(=O)N[C@@H](CCC(N)=O)C(=O)N[C@@H](CC(C)C)C(=O)N[C@@H](CCSC)C(=O)N[C@@H](Cc1c[nH]cn1)C(=O)N[C@@H](CCC(N)=O)C(=O)N[C@@H](CCCCNC(=N)N)C(=O)N[C@@H](C)C(=O)N[C@H]1CCCCNC(=O)CC[C@@H](C(N)=O)NC(=O)[C@H](CC(N)=O)NC(=O)[C@H](CC(C)C)NC(=O)[C@H](Cc2c[nH]c3ccccc23)NC1=O [SEQ ID NO: 9, H-Ac5c-Val-Aib-Glu-Ile-Gln-Leu-Met-His-Gln-Har-Ala-Lys( )-Trp-Leu-Asn-Glu( )-NH2] (H-[Ac5c]V[Aib]EIQLMHQ[hArg]AKWLNE-NH2; lactam 13-17) |  | 0.0141 µM | 1.03 ± 0.03 | 85 % of vehicle |  |
| CC[C@H](C)[C@H](NC(=O)[C@H](CCC(=O)O)NC(=O)C(C)(C)NC(=O)[C@@H](NC(=O)C1(N)CCCC1)C(C)C)C(=O)N[C@@H](CCC(N)=O)C(=O)N[C@@H](CC(C)C)C(=O)N[C@@H](CCSC)C(=O)N[C@@H](Cc1c[nH]cn1)C(=O)N[C@@H](CCC(=O)O)C(=O)N[C@@H](CCCCNC(=N)N)C(=O)N[C@@H](C)C(=O)N[C@H]1CCCCNC(=O)C[C@@H](C(N)=O)NC(=O)[C@H](CC(N)=O)NC(=O)[C@H](CC(C)C)NC(=O)[C@H](Cc2c[nH]c3ccccc23)NC1=O [SEQ ID NO: 24, H-Ac5c-Val-Aib-Glu-Ile-Gln-Leu-Met-His-Glu-Har-Ala-Lys( )-Trp-Leu-Asn-Asp( )-NH2] (H-[Ac5c]V[Aib]EIQLMHE[hArg]AKWLND-NH2; lactam 13-17) |  | 0.126 µM | 1.4 | 83 % of vehicle |  |
| CC[C@H](C)[C@H](NC(=O)[C@H](CCC(=O)O)NC(=O)C(C)(C)NC(=O)[C@@H](NC(=O)C1(N)CCCC1)C(C)C)C(=O)N[C@@H](CCC(N)=O)C(=O)N[C@@H](CC(C)C)C(=O)N[C@H](C(=O)N[C@@H](Cc1c[nH]cn1)C(=O)N[C@@H](CCC(N)=O)C(=O)N[C@@H](CCCCNC(=N)N)C(=O)N[C@@H](C)C(=O)N[C@H]1CCCCNC(=O)C[C@@H](C(N)=O)NC(=O)[C@H](CC(N)=O)NC(=O)[C@H](CC(C)C)NC(=O)[C@H](Cc2c[nH]c3ccccc23)NC1=O)C(C)C [SEQ ID NO: 21, H-Ac5c-Val-Aib-Glu-Ile-Gln-Leu-Val-His-Gln-Har-Ala-Lys( )-Trp-Leu-Asn-Asp( )-NH2] (H-[Ac5c]V[Aib]EIQLVHQ[hArg]AKWLND-NH2; lactam 13-17) |  | 0.151 µM | 1.40 ± 0.27 | 92 % of vehicle |  |
| CC[C@H](C)[C@H](NC(=O)[C@H](CCC(=O)O)NC(=O)[C@H](CO)NC(=O)[C@@H](NC(=O)[C@@H](N)CO)C(C)C)C(=O)N[C@@H](CCC(N)=O)C(=O)N[C@@H](CC(C)C)C(=O)N[C@@H](CCSC)C(=O)N[C@@H](Cc1c[nH]cn1)C(=O)N[C@@H](CC(N)=O)C(=O)N[C@@H](CC(C)C)C(=O)NCC(=O)N[C@@H](CCCCN)C(=O)N[C@@H](Cc1c[nH]cn1)C(=O)N[C@@H](CC(C)C)C(=O)N[C@@H](CC(N)=O)C(=O)N[C@@H](CO)C(N)=O [SEQ ID NO: 37, reference compound] |  |  |  | 41 % of vehicle | pEC50 ± SEM (Saos-2 PTH1R [3]; [5]): inactive |

Source: patent US20100048462A1, “TRUNCATED PTH PEPTIDES WITH A CYCLIC CONFORMATION” (Zealand Pharma A/S, priority 2006, published 2010)
